CCS(=O)(=O)N(C(C)=O)c1cc(-n2nc(C(F)(F)F)n(C)c2=O)c(F)cc1C#N
melting point: 179 °C

From patent US6350720B2, “Substituted phenyltriazolin(THI)ones and their use as herbicides” (Bayer Aktiengesellschaft, priority 1997, dated 2002)
